Results from publication PMC8259862, “Latency, thermal stability, and identification of an inhibitory compound of mirolysin, a secretory protease of the human periodontopathogen Tannerella forsythia” (Journal of Enzyme Inhibition and Medicinal Chemistry, 2021).
Several values for one entry are separate records, joined by “and”; a condition that tells them apart may be missing. Identical values can stand only once.

Assays:
[1] = molecular target: Arg-specific gingipains, Rgp; parameters: method as in PMID 15361547; settings: cited from earlier work
[2] = molecular target: Lys-specific gingipain, Kgp; parameters: method as in PMID 15361547; settings: cited from earlier work
mirolysin [3] = molecular target: T1, mirolysin (Tannerella forsythia, UniProt A0A0F7IPS1); test: Screening round II: inhibitory activity of the 21 fragments against mirolysin (FTC-casein); format: biochemical; settings: molar ratio 50:1 (compound:enzyme), read-out: reduction of mirolysin activity (screening round II)
T1 sequence (A0A0F7IPS1 entry or part of it): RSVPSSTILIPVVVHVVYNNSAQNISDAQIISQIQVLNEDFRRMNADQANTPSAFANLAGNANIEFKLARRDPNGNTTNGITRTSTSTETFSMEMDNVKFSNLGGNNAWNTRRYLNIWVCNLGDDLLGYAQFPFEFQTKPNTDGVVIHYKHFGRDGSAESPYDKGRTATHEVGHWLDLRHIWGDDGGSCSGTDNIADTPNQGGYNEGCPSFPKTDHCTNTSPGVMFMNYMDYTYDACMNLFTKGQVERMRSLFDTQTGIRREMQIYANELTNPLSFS
Protocol: (§1) Mirolysin activity was routinely determined in assay buffer (50 mM Tris, 150 mM NaCl, 5 mM CaCl2, 0.02% NaN3, pH 7.5) supplemented with 0.05% Pluronic F-127, employing Azocoll or FTC-caseins as a substrate. Briefly, an Azocoll suspension was added to the sample in Eppendorf tubes and vigorously shaken for 15 min–2 h at 37 °C. Undigested Azocoll was removed by centrifugation (16,100 × g, 5 min, 4 °C), and the absorbance at 410 nm was measured using a Sunrise absorbance microplate reader (Tecan, Männedorf, Switzerland). In the case of FTC-casein, analysed samples were transferred into wells of a black microtiter plate (Nunc, Roskilde, Denmark), and then the FTC-casein solution was added. Proteolytic activity was recorded as an increase in fluorescence (excitation/emission = 485/538 nm) over time using a SpectraMax Gemini EM reader (Molecular Devices, San Jose, CA, USA).
Mirolysin (40 nM) was mixed with each of the 21 compounds (2 µM) (Supplementary Table 1) in assay buffer (50 mM Tris, 150 mM NaCl, 5 mM CaCl2, 0.02% NaN3, 0.05% Pluronic F-127, pH 7.5) in a 96-well plate (total volume, 100 µl). After 15 min at 37 °C, 100 µl of the substrate solution FTC-casein (100 µg/ml) was added, and substrate hydrolysis was monitored. The percentage of inhibition was determined relative to the sample containing the enzyme without any compound added (control sample). […]

mirolysin [4] = molecular target: T1, mirolysin; test: 2D NMR titration of 15N-labelled mirolysin (KD); format: binding; settings: KD by NMR titration, estimated from peaks in fast exchange, 298 K
Protocol: The custom-selected Maybridge diversity library of 1500 fragments was screened using the saturation transfer difference (STD) ligand-based approach, with fragments pooled into cocktails of five fragments each. STD spectra were recorded at a concentration of 10 µM mirolysin, with the final concentration of each fragment in the sample at 1 mM. D6-DMSO was used for the lock signal. STD experiments used alternating on- and off-resonance saturation (2s saturation, Gaussian pulse, +0.6 ppm, −5 ppm, 128 scans) with water suppression using a double-pulsed-field gradient spin-echo (DPFGSE) watergate W5 double-echo sequence[32]^,[33]. Spectra were compared with a reference containing d6-DMSO only. […] Hits identified using STD–NMR, based on the intensity ratio of ligand signals between the STD experiment and a 1D reference spectrum, were validated using ^1H,^15N heteronuclear single quantum coherence (HSQC) experiments with water flip back and watergate water suppression[34]^,[35], with spectra assessed for chemical shift perturbations (CSPs) relative to a control containing d6-DMSO. […] Spectra were recorded with 40 scans, and a ^1H spectral width of 9615.4 Hz and a ^15N spectral width of 2128.9 Hz, with 2048 and 256 complex points, respectively. All experiments were recorded at 298 K using a Bruker Avance 600 MHz spectrometer (^1H frequency, 600 MHz) equipped with a 5 mm QCI cryoprobe.

mirolysin [5] = molecular target: T1, mirolysin; test: Determination of KD by microscale thermophoresis; format: binding
Protocol: The Monolith NT.115 instrument (NanoTemper) was used to analyse binding interactions between mirolysin and compounds 9, 10, and 21. Lysine residues of mirolysin were fluorescently labelled with the Monolith NT Protein Labelling Kit RED-NHS-Red dye (NanoTemper), strictly according to the manufacturer’s instruction (a 7 M excess of dye was used). Compounds at concentrations ranging from 1.5 to 25 000 nM were incubated for 5 min at 20 °C with 20 nM mirolysin. Experiments were performed in 0.1 M Tris, 0.15 M NaCl, 5 mM CaCl2, 0.05% Pluronic-F127, 0.02% NaN3, pH 7.5. Samples were loaded into Monolith NT.115 Standard Treated glass capillaries (NanoTemper), and an initial fluorescence measurement followed by a thermophoresis measurement was carried out using 80% LED power and high microscale thermophoresis (MST) power. KD values were calculated using MO. Affinity Analysis software (NanoTemper). Each experiment was performed in triplicate.

mirolysin [6] = molecular target: T1, mirolysin; test: Dose-dependent inhibition of mirolysin (Azocoll); format: biochemical
Protocol: as §1
Mirolysin (0.1 µM) was incubated with increasing concentrations of compounds (0–100 µM) in 50 µl assay buffer (50 mM Tris, 0.15 M NaCl, 5 mM CaCl2, 0.02% NaN3, pH 7.5) for 15 min at 37 °C, before 200 µl Azocoll suspension (15 mg/ml in assay buffer) was added.

mirolysin [7] = molecular target: T1, mirolysin; test: Determination of inhibition constant (Ki) and mode of inhibition (FTC-casein); format: biochemical; settings: for mode of inhibition: Lineweaver-Burk plot
Protocol: After 15 min of incubation at 37 °C, 100 µl fluorogenic protein substrate FTC-casein was added at different concentrations (5–120 µg/ml), and the residual proteolytic activity was recorded. The mode of inhibition of target proteases by the compounds was determined graphically using the Lineweaver–Burk plot using Equation (2): (2) 1/V=Km/Vmax×1/[S]+1/Vmax where V is the reaction velocity, Vmax is the maximum V, Km is the Michaelis–Menten constant, and [S] is the substrate concentration. The Ki was determined using a macro for competitive inhibition from GraphPad Prism software (La Jolla, CA, USA) and Equation (3): (3) V=Vmax×[S]/Kmobs+[S]; Kmobs=Km×(1+[I]/Ki) where Kmobs is the Michaelis–Menten constant in the presence of inhibitor, and [I] is the inhibitor concentration.

mirolysin [8] = molecular target: T1, mirolysin; test: Screening of compound specificity: mirolysin; format: biochemical; settings: read-out: decrease in mirolysin activity
Protocol: (§2) The residual proteolytic activity was determined employing Azocoll (12 mg/ml) or, for gingipains only, FTC-casein (50 µg/ml), as described above.

mirolase = test: Screening of compound specificity: mirolase; format: biochemical, Tannerella forsythia; settings: 100 nM protease, 100 M excess of compound, Azocoll
Protocol: as §2

karilysin = molecular target: T2, karilysin (Tannerella forsythia, UniProt D0EM77); test: Screening of compound specificity: karilysin; format: biochemical; settings: 100 nM protease, 100 M excess of compound, Azocoll
T2 construct: made in house
T2 sequence (D0EM77 35-472): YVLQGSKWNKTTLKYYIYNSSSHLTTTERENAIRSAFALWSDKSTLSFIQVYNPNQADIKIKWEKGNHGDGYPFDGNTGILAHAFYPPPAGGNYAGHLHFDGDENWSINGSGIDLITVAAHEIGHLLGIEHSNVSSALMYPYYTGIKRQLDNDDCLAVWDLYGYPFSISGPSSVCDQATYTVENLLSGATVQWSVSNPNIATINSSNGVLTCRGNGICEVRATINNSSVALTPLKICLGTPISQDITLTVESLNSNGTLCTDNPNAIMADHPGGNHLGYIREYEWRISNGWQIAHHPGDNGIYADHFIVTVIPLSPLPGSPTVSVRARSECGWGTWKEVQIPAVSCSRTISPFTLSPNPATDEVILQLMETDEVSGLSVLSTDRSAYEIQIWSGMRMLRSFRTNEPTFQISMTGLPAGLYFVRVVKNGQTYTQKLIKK
Protocol: as §2

forsilysin = test: Screening of compound specificity: forsilysin; format: biochemical, Tannerella forsythia; settings: 100 nM protease, 100 M excess of compound, Azocoll
Protocol: as §2

RgpB = molecular target: T3, RgpB (Porphyromonas gingivalis, UniProt P95493); test: Screening of compound specificity: RgpB; format: biochemical; settings: 100 nM protease, 100 M excess of compound, FTC-casein
T3 construct: His; made in house
T3 sequence (P95493 230-736): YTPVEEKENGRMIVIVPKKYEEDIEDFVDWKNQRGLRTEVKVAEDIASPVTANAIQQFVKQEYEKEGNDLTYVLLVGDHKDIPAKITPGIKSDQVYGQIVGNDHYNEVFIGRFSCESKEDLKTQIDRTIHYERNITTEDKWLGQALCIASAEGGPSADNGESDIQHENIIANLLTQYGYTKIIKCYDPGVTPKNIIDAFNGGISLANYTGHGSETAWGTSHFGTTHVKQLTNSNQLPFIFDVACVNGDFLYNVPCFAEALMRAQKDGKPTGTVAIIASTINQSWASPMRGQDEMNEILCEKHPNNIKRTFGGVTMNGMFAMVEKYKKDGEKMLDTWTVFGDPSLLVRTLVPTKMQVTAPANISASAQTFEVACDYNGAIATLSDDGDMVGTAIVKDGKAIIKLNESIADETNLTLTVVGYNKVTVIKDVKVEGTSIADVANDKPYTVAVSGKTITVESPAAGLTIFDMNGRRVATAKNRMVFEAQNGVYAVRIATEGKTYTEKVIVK
Protocol: as §2

Kgp = molecular target: T4, Kgp (Porphyromonas gingivalis, UniProt B2RLK2); test: Screening of compound specificity: Kgp; format: biochemical; settings: 100 nM protease, 100 M excess of compound, FTC-casein
T4 construct: made in house
Protocol: as §2

human thrombin = molecular target: T5, human thrombin (Homo sapiens, UniProt P00734); test: Screening of compound specificity: thrombin; format: biochemical; settings: 100 nM protease, 100 M excess of compound, Azocoll
T5 construct: purchased Merck Sigma-Aldrich
Protocol: as §2

human plasmin = molecular target: T6, human plasmin (Homo sapiens, UniProt P00747); test: Screening of compound specificity: plasmin; format: biochemical; settings: 100 nM protease, 100 M excess of compound, Azocoll
T6 construct: purchased Merck Sigma-Aldrich
T6 sequence (P00747 581-810 limits assumed): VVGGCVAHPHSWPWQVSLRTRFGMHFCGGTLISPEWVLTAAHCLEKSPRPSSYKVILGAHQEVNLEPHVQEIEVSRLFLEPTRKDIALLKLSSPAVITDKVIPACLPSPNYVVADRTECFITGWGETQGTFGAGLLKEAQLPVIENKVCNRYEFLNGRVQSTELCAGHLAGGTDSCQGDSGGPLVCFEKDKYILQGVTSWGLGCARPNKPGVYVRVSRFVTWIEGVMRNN
T6 sequence (P00747 97-580 partner limits assumed): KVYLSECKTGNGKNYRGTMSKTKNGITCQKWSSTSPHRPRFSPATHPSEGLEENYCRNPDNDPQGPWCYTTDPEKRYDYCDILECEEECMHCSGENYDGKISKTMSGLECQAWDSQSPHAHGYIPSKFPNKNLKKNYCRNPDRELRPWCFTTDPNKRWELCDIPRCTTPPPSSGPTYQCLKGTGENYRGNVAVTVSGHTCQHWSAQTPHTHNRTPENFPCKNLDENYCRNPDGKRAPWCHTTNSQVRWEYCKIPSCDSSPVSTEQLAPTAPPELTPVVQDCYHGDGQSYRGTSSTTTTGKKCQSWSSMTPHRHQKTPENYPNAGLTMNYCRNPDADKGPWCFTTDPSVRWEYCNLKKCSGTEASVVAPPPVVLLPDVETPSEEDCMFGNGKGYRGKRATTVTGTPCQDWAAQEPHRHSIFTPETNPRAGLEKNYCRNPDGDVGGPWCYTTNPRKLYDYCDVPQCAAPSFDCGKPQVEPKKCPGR
Protocol: as §2

bovine trypsin = molecular target: T7, bovine trypsin (Bos taurus, UniProt P00760); test: Screening of compound specificity: trypsin; format: biochemical; settings: 100 nM protease, 100 M excess of compound, Azocoll
T7 construct: purchased Merck Sigma-Aldrich
T7 sequence (P00760 24-246): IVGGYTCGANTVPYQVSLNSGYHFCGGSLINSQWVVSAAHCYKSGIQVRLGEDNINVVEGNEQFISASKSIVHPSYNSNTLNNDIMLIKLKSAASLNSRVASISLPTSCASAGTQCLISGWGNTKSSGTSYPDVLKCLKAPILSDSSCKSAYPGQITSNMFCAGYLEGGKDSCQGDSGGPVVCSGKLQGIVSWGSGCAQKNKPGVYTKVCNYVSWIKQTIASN
Protocol: as §2

promirolysin (proM^wt) = test: Effect of compounds on promirolysin autoprocessing (activation in cis); format: biochemical, Tannerella forsythia
Protocol: ProM^wt (70 µM) was activated at 37 °C in 5 mM Tris, 50 mM NaCl, 0.02% NaN3, pH 8.0, alone or in the presence of a […] excess of different compounds. At specific time points, aliquots were withdrawn and analysed by SDS–PAGE (10% gels; 4 µl sample, preincubated with 1:1 (vol:vol) of 20 mM 1,10-phenanthroline for 5 min at room temperature), and measured in a proteolytic activity assay, employing FTC-casein (25 µg/ml) as a substrate.

[9] = […] excess of compound, FTC-casein

SMILES | inhibition at 2 µM (mirolysin [3]) | Kd (mirolysin [4]) | Kd (mirolysin [5]) | IC50 (mirolysin [6]) | Ki (mirolysin [7]) | mode of inhibition (mirolysin [7]) | inhibition at 10 µM (mirolysin [8]) | effect on mirolase activity (mirolase) | effect on karilysin activity (karilysin) | effect on forsilysin activity (forsilysin) | effect on RgpB activity (RgpB) | effect on Kgp activity (Kgp) | effect on thrombin activity (human thrombin) | effect on plasmin activity (human plasmin) | effect on trypsin activity (bovine trypsin) | other results
CN(C)C(=O)[C@H](CCCCN)NC(=O)C(=O)[C@H](CCCN=C(N)N)NC(=O)[C@H](CCCCN)NC(=O)OCc1ccccc1 [Kyt-1] | – | – | – | – | – | – | – | – | – | – | – | – | – | – | – | Ki [1]: 0.00013 µM
CN(NC(=O)CC[C@H](NC(=O)OCc1ccccc1)C(=O)N[C@@H](CCCCN)C(=O)C(=O)NCc1ccccc1)c1ccccc1 [Kyt-36] | – | – | – | – | – | – | – | – | – | – | – | – | – | – | – | Ki [2]: 0.075 nM
NCc1cccc2nsnc12 [cpd 9] | 10 to 20% | 72.2 µM and 72 µM | 1.1 µM | 2.3 µM | 3.2 µM | reversible competitive inhibitors | 50% | almost completely unaffected | almost completely unaffected | almost completely unaffected | almost completely unaffected | almost completely unaffected | almost completely unaffected | almost completely unaffected | almost completely unaffected | effect on mirolase activity (mirolase; listed as Cpd 9): did not affect; effect on karilysin activity (karilysin; listed as Cpd 9): did not affect; effect on forsilysin activity (forsilysin; listed as Cpd 9): did not affect; effect on RgpB activity (RgpB; listed as Cpd 9): did not affect; effect on Kgp activity (Kgp; listed as Cpd 9): did not affect; effect on thrombin activity (human thrombin; listed as Cpd 9): did not affect; effect on plasmin activity (human plasmin; listed as Cpd 9): did not affect; effect on trypsin activity (bovine trypsin; listed as Cpd 9): did not affect; effect on proteolytic activity in aliquots during proM^wt activation (promirolysin (proM^wt); [9]): significantly decreased; reduction of mirolysin activity after 216 h of proM^wt activation (promirolysin (proM^wt); [9]): 30%; effect on proM^wt maturation (35 kDa zymogen to 31 kDa form, SDS-PAGE) (promirolysin (proM^wt); proM^wt 70 µM, 50 M excess of compound, 37 °C, 216 h): significantly slowed; time to complete proM^wt maturation (promirolysin (proM^wt); proM^wt 70 µM, 50 M excess of compound, 37 °C, SDS-PAGE): > 216 h
NCc1cccc(-c2ccco2)c1 [cpd 10] | 10 to 20% | 278 µM | 9.7 µM | 6.6 µM | 22 µM | reversible competitive inhibitors | 20% | almost completely unaffected | almost completely unaffected | almost completely unaffected | almost completely unaffected | almost completely unaffected | almost completely unaffected | almost completely unaffected | almost completely unaffected | –
